Here are results for three molecules from patent publication US7357914B2, “Use of metal chelates in human or animal feeding” (Agristudio S.R.L., priority 2002, dated 2008).

Data set [1] is described as follows: water solubility of the isolated iron (II) chelate. The data set is classed as physicochemical. To be noted: pale yellow powder. The source says: After filtration and washing the chelated product is then dried so as to reduce the amount of absorbed water.
A short description of data set [2]: feeding test in weaned pigs, zinc source in food (growth, zinc retention, tissue minerals). The class given is in vivo. The note with it: for Daily increase / Final living weight: about 27 days; for Final net weight: body weight without content of the digestive tube; for Diet: food intake, 50 ppm zinc from the source; for Daily net increase: net weight. As to the method:
Two test groups of pigs (Control and Test) of 35 days of age and weaned at 19 days, were administered a food differing only in the zinc source. […] The two groups of animals were balanced by nest, living weight and sex and were fed for 27 days. Other 4 animals were immediately sacrificed and a sampling was made of them according to the following procedure. The two groups of animals were weighed before starting the test and after 27 days. At the end of the test the pigs were sacrificed and stomach, intestine, left kidney and liver were removed from every pig. Stomach and intestine were emptied and weighed again so as to obtain the net weight of said organs. A sample of kidney, liver and brain was taken and frozen. Stomach, intestine, left kidney and liver were then put together with the remaining carcass and homogenized with a mixer. A sample was then taken from the mass thus obtained and frozen. The samples were then dehydrated with a dehydrating device and underwent chemical analysis. The level of zinc, copper and iron were determined on the lyophilized samples by atomic absorption spectroscopy. The body levels of zinc were referred to the product. On the basis of the body's “net” weight (i.e. without the content of the digestive tube) and of its content of zinc at test beginning and end it was possible to determine also daily zinc retention.

A short description of data set [3]: feeding test in female Charolaise calves, zinc source in diet (zootechnical performance). The data set is classed as in vivo. As for the experimental part: Living weight at test beginning and end, dead weight and slaughtering yield were determined for each animal.
Where [4] appears, read: pigs, 50 ppm zinc from the source in food.
The mark [5] stands for this setting: pigs, lyophilized samples, atomic absorption.
Setting [6] is: single calves 1-6 of each group, Table 5, listed as TEST.

Where “and” joins values, the source holds several entries; their conditions need not be identical. Equal values may be shown once.

Take `CSCCC(O)C(=O)[O-].CSCCC(O)C(=O)[O-].O.O.[Fe+2]` (centres unmarked) [(CH3SCH2CH2CH(OH)COO)2Fe.2H2O]: in data set [1], the water solubility entry is “little water soluble”.
With `O=S(=O)([O-])[O-].[Zn+2]` [zinc sulfate, reference compound], in data set [2] (setting [4]), the Daily increase stood at 321 g and the Final living weight is 16.20 kg. In addition, in data set [2] (pigs), the Final net weight worked out at 15.76 kg, the Diet is listed as 548 g and the Daily net increase came to 313 g. Moreover, the “Daily Zn retention” value in data set [2] (pigs, from net body weight and body zinc content at test beginning and end) is reported as 5.27 mg. Also, in data set [2] (setting [5]), the “Brain Copper content” value amounted to 23.3, the “Brain Iron content” value was found to be 80.6, the “Brain Zinc content” value came out at 47.6 and the “Kidney Copper content” value was 40.2. Also, in data set [2] (setting [5]), the “Kidney Iron content” value turned out to be 179, the “Kidney Zinc content” value was determined as 82.3, the “Liver Copper content” value was 62.5 mg/kg and the “Liver Zinc content” value turned out to be 300 mg/kg.
As for `CSCCC(O)C(=O)[O-].CSCCC(O)C(=O)[O-].O.O.[Zn+2]` (centres unmarked) [zinc chelate, (CH3SCH2CH2CH(OH)COO)2Zn.2H2O], in data set [2] (pig, in vivo), the “Brain Copper content” value worked out at 28.1, the “Brain Iron content” value turned out to be 100.9, the “Brain Zinc content” value came to 53.9 and the “Daily Zn retention” value is 5.40 mg. For the same molecule, in data set [2] (pig, in vivo), the “Kidney Copper content” value is given as 55.0, the “Kidney Iron content” value came out at 244, the “Kidney Zinc content” value was 97.5 and the “Liver Copper content” value is recorded as 63.6 mg/kg. In data set [2] (pig, in vivo), the “Liver Iron content” value amounted to 240 and the “Liver Zinc content” value turned out to be 292 mg/kg. In data set [2] (setting [4]), this molecule showed a Conversion index of 1.68, a Daily increase of 327 g and a Final living weight of 16.14 kg. Moreover, in data set [2] (pigs), the Final net weight was determined as 15.57 kg, the Diet is on record as 544 g and the Daily net increase was found to be 314 g. Besides, the Final weight in data set [3] (calves, 90 days, 700 mg zinc daily, group value, Table 4, in kg) was 652. The molecule further had a carcass weight in data set [3] (calves, 90 days, P<0.01) of 377 kg. In addition, the Daily increase in data set [3] (calves, 90 days, group value, Table 4) is on record as 1,039. In data set [3] (calves, 90 days, group value, Table 4, in kg), this molecule registered a carcass weight of 377. Moreover, in data set [3] (calves, 90 days, p<0.05), the Final weight is recorded as 652 kg and the daily weight increase is reported as 1,039 g. Further, the yield in data set [3] (calves, slaughtering yield, p<0.01) came to 57.83%. In addition, in data set [3] (setting [6]), the Dead weight was 421 kg and 457 kg and 398 kg and 378 kg and 320 kg and 318 kg; the Final weight was 724.61 kg and 789.29 kg and 686.21 kg and 653.98 kg and 557.49 kg and 548.28 kg; the Total increase is 99.0 kg and 112.5 kg and 103.5 kg and 90.00 kg and 81.00 kg and 80.10 kg.
